The results in this text go back to patent US11981696B2, “Fluoro-pyridinone phosphates and boronates useful as antibacterial agents” (Pfizer Inc., priority 2018, dated 2024).

In brackets after ≈: the same amount, converted by molar mass.

One series relates to hepatocytes from mouse. Description: In vitro hepatocyte study, mouse. Particulars: concomitant appearance of parent compound and its glucuronide metabolite. Type of series: in vitro ADME. From the text:
(§1) In vitro hepatocyte study: The disposition of (2R)-4-[5-fluoro-4-(2-fluoro-4-methoxyphenyl)-2-oxopyridin-1(2H)-yl]-N-hydroxy-2-methyl-2-(methylsulfonyl) butanamide phosphate was examined in hepatocytes from mouse, rat, dog, monkey and human. In each case, qualitatively it was observed that the (2R)-4-[5-fluoro-4-(2-fluoro-4-methoxyphenyl)-2-oxopyridin-1(2H)-yl]-N-hydroxy-2-methyl-2-(methylsulfonyl) butanamide phosphate disappeared, concomitant with appearance of (2R)-4-[5-fluoro-4-(2-fluoro-4-methoxyphenyl)-2-oxopyridin-1(2H)-yl]-N-hydroxy-2-methyl-2-(methylsulfonyl) butanamide (parent compound) and a glucuronide metabolite of the parent compound. In Vivo Studies

A further series concerns hepatocytes from rat. Description: In vitro hepatocyte study, rat. Format: in vitro ADME. The conditions noted are these: concomitant appearance of parent compound and its glucuronide metabolite.
Description: as §1

The test system of another series is hepatocytes from dog. The series is described as follows: In vitro hepatocyte study, dog. Type of series: in vitro ADME. The conditions noted are these: concomitant appearance of parent compound and its glucuronide metabolite.
Description: as §1

The test system of another series is hepatocytes from monkey. Description: In vitro hepatocyte study, monkey. Format: in vitro ADME. The conditions noted are these: concomitant appearance of parent compound and its glucuronide metabolite.
Description: as §1

Another series relates to hepatocytes from human. Description: In vitro hepatocyte study, human. Format: in vitro ADME. The conditions noted are these: concomitant appearance of parent compound and its glucuronide metabolite.
Description: as §1

Series [1] can be described thus: Solubility in normal saline. Format: physicochemical. The conditions noted are these: saline or isotonic.
Series [2] deals with Acinetobacter baumannii/haemolyticus AB-3167. Description: MIC determination (CLSI), AB-3167. Format: cell-based. Particulars: multidrug-resistant clinical isolate, lower of duplicate values. Here is the method:
(§2) B) MIC determinations: The in vitro antibacterial activity of compounds was evaluated by minimum inhibitory concentration (MIC) testing according to Clinical and Laboratory Standards Institute (CLSI). See: Clinical and Laboratory Standards Institute. Methods for Dilution Antimicrobial Susceptibility Tests for Bacteria that Grow Aerobically; Approved Standard-Eighth Edition. CLSI document M7-A8 [ISBN 1-56238-689-1]. Clinical and Laboratory Standards Institute, 940 West Valley Road, Suite 1400, Wayne, Pennsylvania 19087-1898 USA, 2006; also Clinical and Laboratory Standards Institute. Performance Standards for Antimicrobial Susceptibility Testing; Twentieth Informational Supplement. CLSI document M100-S20 [ISBN1-56238-716-2]. Clinical and Laboratory Standards Institute.
(§3) The MIC determination is a standard laboratory method for evaluating the antibacterial activity of a compound. […] The MIC is then determined by visually inspecting the drug effect at each concentration, and identifying the lowest drug concentration that has inhibited bacterial growth as compared to the drug free control. […]
(§4) The MIC values described in Table 3 below were derived from assays wherein each test compound was evaluated in duplicate. […] While a single MIC is reported for each compound and each microorganism, the reader should not conclude that each compound was only tested once. […]

A further series has as its system Escherichia coli EC-1. The series is described as follows: MIC determination (CLSI), EC-1. Format: cell-based. Particulars: EC1, read-out: EC-1 MIC. Here is the method:
as §2, §3, §4

Series [3] deals with Klebsiella pneumoniae KP-3700. The series is described as follows: MIC determination (CLSI), KP-3700. Particulars: ciprofloxacin-resistant, ESBL clinical isolate; lower of duplicate values. Format: cell-based. Here is the method:
as §2, §3, §4

Series [4] deals with Pseudomonas aeruginosa UI-18 (PA-7). Description: MIC determination (CLSI), PA-7. Format: cell-based. The conditions noted are these: wild-type UI-18, lower of duplicate values. Here is the method:
as §2, §3, §4

As to `COc1ccc(-c2cc(=O)n(CC[C@](C)(C(=O)NOP(=O)(O)O)S(C)(=O)=O)cc2F)c(F)c1` [Example 1, (2R)-4-(5-fluoro-4-(2-fluoro-4-methoxyphenyl)-2-oxopyridin-1(2H)-yl)-2-methyl-2-(methylsulfonyl)butanamido phosphate], the “disposition in hepatocytes (qualitative)” value with hepatocytes from mouse, in the series with hepatocytes from rat, in the series with hepatocytes from dog, with hepatocytes from monkey and with hepatocytes from human was “disappeared” each time.
For `COc1ccc(-c2cc(=O)n(CC[C@](C)(C(=O)NOP(=O)([O-])[O-])S(C)(=O)=O)cc2F)c(F)c1.[Na+].[Na+]` [Example 3, (R)-4-(5-fluoro-4-(2-fluoro-4-methoxyphenyl)-2-oxopyridin-1(2H)-yl)-2-methyl-2-(methylsulfonyl)butanamido phosphate, Disodium Salt], the solubility in [1] was at least 20 mg/mL.
Consider `COc1ccc(-c2cc(=O)n(CC[C@](C)(C(=O)NO)S(C)(=O)=O)cc2F)c(F)c1` [Parent Compound, (2R)-4-[5-fluoro-4-(2-fluoro-4-methoxyphenyl)-2-oxopyridin-1(2H)-yl]-N-hydroxy-2-methyl-2-(methylsulfonyl)butanamide], for which the MIC in [2] was over 64 µg/mL; in the series with Escherichia coli EC-1 it was 0.25 µg/mL (≈ 0.581 µM); in [4] it was 0.5 µg/mL (≈ 1.16 µM). Besides, in series [3], the “KP-3700 MIC” value turned out to be 0.5 µg/mL. This compound had a solubility in series [1] of under 1 mg/mL.

As usually defined, the solubility is the concentration that dissolves in the medium under given conditions. The MIC is the smallest concentration in the dilution series that meets the test's criterion for growth inhibition.
